Test systems include IGROV-1; T47D; OVCAR-4; RPMI-8226; NCI-H23; UACC-257; SF-295; OVCAR-5; MDA-N; NCI-H226; CCRF-CEM; 786-0; SN12C; U-251; UO-31; M14; HCT-116; MCF7; OVCAR-8; SR.
Holding throughout (assay): NCI anticancer screen, dose series, 48 h

Data on ten compounds can be found in ChEMBL document CHEMBL1201862, “PubChem BioAssay data set” (2004).

The structures appear in SMILES notation.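 Following 48 hours of exposure in 96-well plates, responses at five concentrations were used to interpolate endpoints linearly. At the GI50, growth is halved.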 Activity calls are given as the source filed them. Rule as the data show it: active = GI50 up to about 1.1 µM and inactive = higher.

In the case of `CC(=O)OC1=CC(n2cc(F)c(=O)[nH]c2=O)OC(C)C1=O` (stereo not given), the GI50 is 30.5 µM (inactive) in the test with IGROV-1; 16.7 µM (inactive) in the test on T47D; > 82.2 µM (inactive) in the test with OVCAR-4; 26.5 µM (inactive) in the test with RPMI-8226; 19.1 µM (inactive) in the test with NCI-H23; 57.1 µM (inactive) in the test with UACC-257. In addition, the GI50 in the test on SF-295 is 48.9 µM (inactive); in the test on OVCAR-5, 49.8 µM (inactive); with MDA-N, 15.2 µM (inactive); in the test with NCI-H226 it was > 97.3 µM (inactive); in the test with CCRF-CEM it was 75 µM (inactive); with 786-0 it was 26.4 µM (inactive). For the same compound, the GI50 with SN12C was 67.8 µM (inactive); in the test with U-251 it was > 85.7 µM (inactive); in the test with UO-31 it was 13.5 µM (inactive); in the test on M14 it was 61.2 µM (inactive); with HCT-116, 10.8 µM (inactive); with MCF7 it was 4.28 µM (inactive). In addition, the GI50 is 40.7 µM (inactive) in the test with OVCAR-8 and 26.1 µM (inactive) in the test on SR.
Consider `NC(=O)C(=CNC(N)=S)C(N)=O`, for which the GI50 in the test with IGROV-1, with T47D, in the test on OVCAR-4, in the test on RPMI-8226, in the test on NCI-H23 and in the test on UACC-257 was > 100 µM (inactive) each time. The GI50 in the test on SF-295, in the test on OVCAR-5, in the test with MDA-N, with NCI-H226, in the test on CCRF-CEM and in the test with 786-0 was > 100 µM (inactive) throughout. For the same compound, the GI50 in the test with SN12C is > 100 µM (inactive); in the test with U-251, > 100 µM (inactive); with UO-31, 60 µM (inactive); with M14 it was > 100 µM (inactive); in the test on HCT-116, > 100 µM (inactive); in the test on MCF7, > 100 µM (inactive). The GI50 in the test with OVCAR-8 and in the test on SR was > 100 µM (inactive) each time.
Take `CSC1=N/C(=C\c2ccc(C)cc2)C(=O)N1`: the GI50 in the test with IGROV-1 is > 100 µM (inactive); in the test on T47D it was 25.2 µM (inactive); in the test on OVCAR-4 it was > 100 µM (inactive); in the test on RPMI-8226, > 100 µM (inactive); with NCI-H23, 51.8 µM (inactive); with UACC-257, > 100 µM (inactive). Besides, the GI50 was 65 µM (inactive) in the test with SF-295; > 100 µM (inactive) with OVCAR-5; > 100 µM (inactive) in the test with MDA-N; > 100 µM (inactive) with NCI-H226; 92.5 µM (inactive) in the test on CCRF-CEM; 45.8 µM (inactive) in the test on 786-0. For the same compound, the GI50 in the test on SN12C is > 100 µM (inactive); with U-251, 65.3 µM (inactive); in the test on UO-31, 47.8 µM (inactive); in the test on M14 it was > 100 µM (inactive); in the test with HCT-116, 40.6 µM (inactive); in the test on MCF7 it was 50.8 µM (inactive). Moreover, the GI50 with OVCAR-8 is 95.3 µM (inactive); in the test on SR it was > 100 µM (inactive).
Regarding `O=c1oc2ccccc2cc1-c1csc(Nc2cc(Cl)cc(Cl)c2)n1`, the GI50 is 14 µM (inactive) in the test with IGROV-1; 15.5 µM (inactive) in the test on T47D; 1.79 µM (inactive) with OVCAR-4; > 100 µM (inactive) in the test with RPMI-8226; > 38.1 µM (inactive) with NCI-H23; > 100 µM (inactive) with UACC-257. For the same compound, the GI50 in the test with SF-295 was 6.35 µM (inactive); with OVCAR-5 it was > 100 µM (inactive); in the test with MDA-N it was 29.2 µM (inactive); with NCI-H226, > 35.8 µM (inactive); with CCRF-CEM, 25.2 µM (inactive); in the test with 786-0 it was 2.27 µM (inactive). Further, the GI50 in the test with SN12C is 6.31 µM (inactive); with U-251, 2.39 µM (inactive); in the test with UO-31, 2.77 µM (inactive); in the test on M14, > 35.5 µM (inactive); with HCT-116, 3.6 µM (inactive); in the test with MCF7, 17.4 µM (inactive). Besides, the GI50 in the test with OVCAR-8 is 4.11 µM (inactive); in the test on SR, > 20 µM (inactive).
Take `O=C(O)/C=C\C(=O)Nc1ccc2c(c1)C(=O)c1cc(F)ccc1-2`: the GI50 in the test on IGROV-1, in the test on T47D, in the test on OVCAR-4, with RPMI-8226, with NCI-H23 and in the test on UACC-257 was > 100 µM (inactive) throughout. Further, the GI50 with SF-295, in the test with OVCAR-5, in the test with MDA-N, with NCI-H226, in the test on CCRF-CEM and with 786-0 was > 100 µM (inactive) each time. In addition, the GI50 with SN12C is > 100 µM (inactive); in the test with U-251, 99.8 µM (inactive); in the test on UO-31, > 100 µM (inactive); in the test on M14, > 100 µM (inactive); in the test with HCT-116 it was > 100 µM (inactive); in the test on MCF7 it was > 100 µM (inactive). The GI50 in the test with OVCAR-8 and in the test with SR was > 100 µM (inactive) throughout.
Regarding `O=c1c2nc3ccccc3c(=O)n2ncn1-c1ccccc1Cl`, the GI50 with IGROV-1, in the test on T47D, with OVCAR-4, in the test on RPMI-8226, in the test with NCI-H23 and in the test with UACC-257 was > 100 µM (inactive) throughout. The GI50 in the test with SF-295, in the test on OVCAR-5, in the test on MDA-N, with NCI-H226, in the test with CCRF-CEM and with 786-0 was > 100 µM (inactive) throughout. The GI50 with SN12C, in the test with U-251, with UO-31, in the test on M14, in the test on HCT-116 and in the test on MCF7 was > 100 µM (inactive) throughout. For the same compound, the GI50 in the test with OVCAR-8 and with SR was > 100 µM (inactive) throughout.
Take `O=C1OCC2=C1C(c1ccc3c(c1)OCO3)c1cc3c(cc1O2)OCO3` (stereo not given): the GI50 in the test with IGROV-1 is 0.537 µM (active); in the test on T47D, 0.7 µM (active); in the test on OVCAR-4, 7.94 µM (inactive); in the test with RPMI-8226, 0.378 µM (active); in the test with NCI-H23 it was 1.29 µM (inactive); in the test on UACC-257, 5.13 µM (inactive). Also, the GI50 in the test on SF-295 is 3.03 µM (inactive); with OVCAR-5, 7.48 µM (inactive); with MDA-N it was 0.0782 µM (active); in the test on NCI-H226 it was 5.14 µM (inactive); with CCRF-CEM it was 0.667 µM (active); in the test with 786-0, 0.785 µM (active). For the same compound, the GI50 was 1.3 µM (inactive) in the test on SN12C; 0.583 µM (active) in the test with U-251; 1.59 µM (inactive) in the test on UO-31; 0.369 µM (active) with M14; 0.436 µM (active) in the test with HCT-116; 0.341 µM (active) in the test on MCF7. The results for the GI50 in the test on OVCAR-8 and in the test with SR were 1.11 µM (active) and 0.19 µM (active), respectively.
Consider `COC(=O)c1c(C)[nH]c2c1C(=O)C(=O)c1nc(C)c(C)nc1-2`, for which the GI50 in the test on IGROV-1 was 3.41 µM (inactive); in the test with T47D it was 0.162 µM (active); in the test on OVCAR-4, 12.9 µM (inactive); in the test on RPMI-8226 it was 10.2 µM (inactive); in the test on NCI-H23, 10.2 µM (inactive); with UACC-257 it was 11 µM (inactive). Further, the GI50 was 4.54 µM (inactive) with SF-295; 11.7 µM (inactive) in the test on OVCAR-5; 5.37 µM (inactive) with MDA-N; 11.8 µM (inactive) in the test with NCI-H226; 5.04 µM (inactive) in the test with CCRF-CEM; 10.4 µM (inactive) in the test on 786-0. The GI50 was 2.84 µM (inactive) in the test on SN12C; 4.84 µM (inactive) in the test on U-251; 10.1 µM (inactive) with UO-31; 10.7 µM (inactive) with M14; 4.28 µM (inactive) in the test on HCT-116; 7.48 µM (inactive) in the test with MCF7. Also, the GI50 with OVCAR-8 was 10.2 µM (inactive); with SR, 5.33 µM (inactive).
As for `C=C(CCC(C(=O)O)C1CCC2(C)C3=C(CCC12C)C1(C)CCC(O)C(C)(C)C1CC3)C(C)C` (stereo not given), the GI50 with IGROV-1 is 22.3 µM (inactive); with T47D, 58.1 µM (inactive); in the test with OVCAR-4, 43.1 µM (inactive); with RPMI-8226, 19.9 µM (inactive); in the test with NCI-H23 it was 29.6 µM (inactive); in the test on UACC-257 it was 97.5 µM (inactive). Further, the GI50 in the test with SF-295 is 38.5 µM (inactive); in the test with OVCAR-5, > 100 µM (inactive); in the test on MDA-N, 86.7 µM (inactive); in the test on NCI-H226, 30.2 µM (inactive); in the test on CCRF-CEM it was > 10 µM (inactive); in the test on 786-0, 45.1 µM (inactive). Besides, the GI50 was 44.6 µM (inactive) in the test on SN12C; 22 µM (inactive) in the test with U-251; > 100 µM (inactive) in the test with UO-31; 40.8 µM (inactive) with M14; 28.6 µM (inactive) in the test on HCT-116; 60.7 µM (inactive) in the test with MCF7. Besides, the GI50 in the test on OVCAR-8 is 19.1 µM (inactive); in the test on SR it was 12.1 µM (inactive).
For `CS(=O)(=O)CC(=O)c1ccccc1`, the GI50 in the test on IGROV-1, in the test on T47D, in the test with OVCAR-4, in the test with RPMI-8226, in the test with NCI-H23 and with UACC-257 was > 100 µM (inactive) each time. In addition, the GI50 in the test on SF-295, in the test on OVCAR-5, in the test with MDA-N, with NCI-H226, with CCRF-CEM and with 786-0 was > 100 µM (inactive) in each case. Moreover, the GI50 in the test on SN12C, with U-251, in the test with UO-31, with M14, in the test on HCT-116 and in the test on MCF7 was > 100 µM (inactive) in each case. Besides, the GI50 with OVCAR-8 and in the test with SR was > 100 µM (inactive) each time.
